Measurements reported in DBAASP.
≈ marks a conversion by molar mass, not a printed value.

How the values were obtained:
Assay in all cases: ≥ marks a high value that may be exact or a test limit, other limits are often not marked, values filed in µg/mL are converted to µM
[1] = system: Escherichia coli ATCC 11219
[2] = system: Klebsiella pneumoniae ATCC 10031
[3] = system: Salmonella enterica subsp. enterica serovar Typhimurium ATCC 14028
[4] = system: Staphylococcus aureus ATCC 6538
[5] = system: Pseudomonas aeruginosa ATCC 13388
[6] = system: Bacillus cereus NCDC 0240
[7] = system: Acinetobacter johnsonii NCDC 0072
[8] = system: Listeria monocytogenes ATCC 19111
[9] = system: Escherichia coli MTCC 0723
[10] = system: Staphylococcus aureus ATCC 29213
[11] = system: Pseudomonas aeruginosa NCDC 0105
[12] = system: Staphylococcus aureus NCDC 0111
[13] = system: Pseudomonas aeruginosa ATCC 27853
[14] = system: Escherichia coli BW25113 ΔsbmA
[15] = system: Escherichia coli BW25113 ΔwaaG
[16] = system: Escherichia coli BW25113
[17] = system: Escherichia coli ATCC 25922
[18] = system: Streptococcus agalactiae
[19] = system: Candida albicans
[20] = system: Mycobacterium tuberculosis H37Rv
[21] = system: Candida glabrata
[22] = system: Staphylococcus aureus ATCC 25923
[23] = system: Pseudomonas aeruginosa ATCC 9027
[24] = system: Mycobacterium tuberculosis
[25] = system: Bacillus subtilis
[26] = system: Candida albicans 08022710
[27] = system: Candida albicans 08032815
[28] = system: Staphylococcus aureus ATCC 2592
[29] = system: Candida albicans 08022821
[30] = system: Candida albicans ATCC 2002
[31] = system: Candida albicans 08030809
[32] = system: Candida parapsilosis ATCC 22019
[33] = system: Escherichia coli IS37#
[34] = system: Escherichia coli IS117#
[35] = system: Candida albicans ATCC 90028
[36] = system: Staphylococcus aureus IS10#
[37] = system: Staphylococcus aureus IS37#
[38] = system: Shigella dysenteriae
[39] = system: Pseudomonas aeruginosa CMCCB 1010
[40] = system: Enterobacter cloacae ATCC 13047
[41] = system: Enterococcus faecalis ATCC 29212
[42] = system: Klebsiella pneumoniae ATCC 700603

## CC[C@H](C)[C@H](NC(=O)CN)C(=O)N[C@@H](Cc1cnc[nH]1)C(=O)N[C@@H](C)C(=O)N[C@H](C(=O)N[C@@H](CC(C)C)C(=O)N[C@@H](CCCCN)C(=O)N[C@@H](Cc1ccc(O)cc1)C(=O)NCC(=O)N[C@@H](CCCCN)C(=O)N1CCC[C@H]1C(=O)N[C@@H](CO)C(N)=O)[C@@H](C)CC [GIHAILKYGKPS]
[1]
  MIC: ≥ 50 µM
[2]
  MIC: 30 µM (≈ 38.5 µg/mL)
[3]
  MIC: > 50 µM
[4]
  MIC: 5 µM (≈ 6.41 µg/mL)
[5]
  MIC: ≥ 50 µM

## CC[C@H](C)[C@H](NC(=O)[C@H](Cc1c[nH]c2ccccc12)NC(=O)[C@@H]1CCCN1C(=O)[C@H](CC(C)C)NC(=O)CN)C(=O)N[C@@H](CC(C)C)C(=O)N[C@@H](CC(C)C)C(=O)N[C@@H](CCCN=C(N)N)C(=O)N[C@@H](Cc1c[nH]c2ccccc12)C(=O)N[C@@H](CC(C)C)C(=O)N[C@@H](Cc1ccccc1)C(=O)N[C@@H](Cc1ccccc1)C(=O)N[C@@H](CCCN=C(N)N)C(=O)NCC(=O)O [GLPWILLRWLFFRG]
[6]
  MIC: ≥ 100 µM
[7]
  MIC: ≥ 200 µM
[8]
  MIC: 6 µM (≈ 10.6 µg/mL)
[3]
  MIC: 100 µM (≈ 177 µg/mL)
[9]
  MIC: ≥ 200 µM
[10]
  MIC: 3 µM (≈ 5.32 µg/mL)
[11]
  MIC: ≥ 200 µM
[12]
  MIC: 25 µM (≈ 44.4 µg/mL)
[13]
  MIC: > 200 µM

## CC[C@H](C)[C@H](N)C(=O)N[C@@H](CCCN=C(N)N)C(=O)N1CCC[C@H]1C(=O)N[C@@H](CCCN=C(N)N)C(=O)N1CCC[C@H]1C(=O)N1CCC[C@H]1C(=O)N[C@@H](CCCN=C(N)N)C(=O)N[C@@H](CC(C)C)C(=O)N1CCC[C@H]1C(=O)N[C@@H](CCCN=C(N)N)C(=O)N1CCC[C@H]1C(=O)N[C@@H](CCCN=C(N)N)C(=O)N1CCC[C@H]1C(=O)N[C@@H](CCCN=C(N)N)C(=O)N1CCC[C@H]1C(=O)N[C@@H](CC(C)C)C(=O)N1CCC[C@H]1C(=O)N[C@@H](Cc1ccc(O)cc1)C(=O)N1CCC[C@H]1C(=O)N[C@@H](CCCN=C(N)N)C(=O)N1CCC[C@H]1C(=O)O [IRPRPPRLPRPRPRPLPYPRP]
[14]
  MIC: ≥ 32 µM
[15]
  MIC: 4 µM (≈ 10.3 µg/mL)
[16]
  MIC: 8 µM (≈ 20.7 µg/mL)
[17]
  MIC: 8 µM (≈ 20.7 µg/mL)

## CC[C@H](C)[C@H](NC(=O)[C@H](CC(C)C)NC(=O)[C@H](CO)NC(=O)[C@@H]1CCCN1C(=O)[C@@H](NC(=O)[C@H](C)NC(=O)[C@H](CCCCN)NC(=O)[C@H](CCSC)NC(=O)[C@H](C)NC(=O)[C@H](CC(C)C)NC(=O)[C@H](CCCCN)NC(=O)CNC(=O)[C@H](CC(C)C)NC(=O)[C@H](Cc1ccccc1)NC(=O)CNC(=O)[C@H](Cc1c[nH]c2ccccc12)NC(=O)[C@@H](N)Cc1ccccc1)C(C)C)C(=O)NCC(=O)NCC(=O)N[C@@H](CC(N)=O)C(=O)N[C@@H](CCCCN)C(=O)N[C@@H](CO)C(=O)N[C@@H](CO)C(=O)N[C@@H](CO)C(=O)N[C@@H](CCCCN)C(=O)O [FWGFLGKLAMKAVPSLIGGNKSSSK]
[18]
  MIC: 15 µM (≈ 39.4 µg/mL)
[19]
  MIC: 12.5 µM (≈ 32.8 µg/mL)
[20]
  MIC: 21.4 µM (≈ 56.2 µg/mL)
[21]
  MIC: ≥ 50 µM
[22]
  MIC: 10 µM (≈ 26.2 µg/mL)
[23]
  MIC: 15 µM (≈ 39.4 µg/mL)
[24]
  MIC: 30.5 µM (≈ 80 µg/mL)
[17]
  MIC: 24 µM (≈ 63 µg/mL)

## CC(C)[C@H](N)C(=O)N[C@@H](CCCCN)C(=O)N[C@@H](CCCN=C(N)N)C(=O)N[C@@H](Cc1c[nH]c2ccccc12)C(=O)N[C@@H](CCCCN)C(=O)N[C@@H](CCCCN)C(=O)N[C@@H](Cc1c[nH]c2ccccc12)C(=O)N[C@@H](CCCN=C(N)N)C(=O)N[C@@H](Cc1c[nH]c2ccccc12)C(=O)N[C@@H](CCCCN)C(=O)N[C@@H](Cc1c[nH]c2ccccc12)C(=O)N[C@@H](CCCCN)C(=O)N[C@@H](CCCCN)C(=O)N[C@@H](Cc1c[nH]c2ccccc12)C(=O)N[C@H](C(N)=O)C(C)C [VKRWKKWRWKWKKWV]
[25]
  MIC: 0.525 µM (≈ 1.17 µg/mL)
[26]
  MIC: 2.1 µM (≈ 4.69 µg/mL)
[27]
  MIC: 1.25 µM (≈ 2.79 µg/mL)
[28]
  MIC: 0.525 µM (≈ 1.17 µg/mL)
[29]
  MIC: 1.4 µM (≈ 3.13 µg/mL)
[30]
  MIC: 0.265 µM (≈ 0.59 µg/mL)
[31]
  MIC: 0.628 µM (≈ 1.4 µg/mL)
[17]
  MIC: 4.21 µM (≈ 9.38 µg/mL)

## CC[C@H](C)[C@H](NC(=O)[C@H](CC(C)C)NC(=O)[C@@H]1CCCN1C(=O)[C@H](Cc1ccccc1)NC(=O)[C@@H](N)Cc1ccccc1)C(=O)N[C@@H](C)C(=O)NCC(=O)N[C@@H](CC(C)C)C(=O)N[C@@H](C)C(=O)N[C@@H](C)C(=O)N[C@@H](CCCN=C(N)N)C(=O)N[C@@H](Cc1ccccc1)C(=O)N[C@@H](CC(C)C)C(=O)N1CCC[C@H]1C(=O)N[C@@H](CCCCN)C(=O)N[C@H](C(=O)N[C@@H](Cc1ccccc1)C(=O)N[C@H]1CSSC[C@@H](C(=O)O)NC(=O)[C@H](CCCN=C(N)N)NC(=O)[C@H](CCCCN)NC(=O)[C@H]([C@@H](C)O)NC(=O)[C@H]([C@@H](C)CC)NC(=O)[C@H](CO)NC1=O)[C@@H](C)CC [FFPLIAGLAARFLPKIFCSITKRC]
[32]
  MIC: 7.37 µM (≈ 20 µg/mL)
[33]
  MIC: 0.921 µM (≈ 2.5 µg/mL)
[34]
  MIC: 3.69 µM (≈ 9.99 µg/mL)
[35]
  MIC: 3.69 µM (≈ 9.99 µg/mL)
[36]
  MIC: 3.69 µM (≈ 9.99 µg/mL)
[37]
  MIC: 1.84 µM (≈ 5 µg/mL)
[38]
  MIC: 3.69 µM (≈ 9.99 µg/mL)
[39]
  MIC: 1.84 µM (≈ 5 µg/mL)
[40]
  MIC: 0.921 µM (≈ 2.5 µg/mL)
[30]
  MIC: 1.84 µM (≈ 5 µg/mL)
[22]
  MIC: 1.84 µM (≈ 5 µg/mL)
[41]
  MIC: 1.84 µM (≈ 5 µg/mL)
[42]
  MIC: 0.921 µM (≈ 2.5 µg/mL)
[13]
  MIC: 3.69 µM (≈ 9.99 µg/mL)
[17]
  MIC: 0.368 µM (≈ 0.999 µg/mL)
